Source: patent publication US20250195528A1, “DOSE REGIMEN OF VICASINABIN” (Hoffmann-La Roche Inc., priority 2022, published 2025)
Entries after “also recorded” stand apart in the source; their conditions may differ. Read-outs that look alike come from different tables or passages of the source.

Legend:
[1] = target: T1, human CB2 (Homo sapiens, UniProt P34972); experiment: Forskolin-stimulated cAMP inhibition in stably transfected CHO cells; type: cell-based; details: for Emax: CHO, normalized to 10 μM CP55′940; for IC50: IC50 ± SE (nM), CHO cells
T1 construct: expressed in transfected cells; host or cells: CHO cells
T1 sequence (P34972 whole entry): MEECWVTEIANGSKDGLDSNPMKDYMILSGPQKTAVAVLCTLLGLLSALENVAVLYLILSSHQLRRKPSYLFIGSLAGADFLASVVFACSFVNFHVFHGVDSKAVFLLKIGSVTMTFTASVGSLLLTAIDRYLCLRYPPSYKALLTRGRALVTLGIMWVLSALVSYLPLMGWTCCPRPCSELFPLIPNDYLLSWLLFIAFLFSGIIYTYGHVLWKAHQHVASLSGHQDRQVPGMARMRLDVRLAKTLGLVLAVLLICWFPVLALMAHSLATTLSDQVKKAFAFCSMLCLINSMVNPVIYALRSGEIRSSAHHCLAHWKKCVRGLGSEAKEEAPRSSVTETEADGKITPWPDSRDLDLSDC
Description: (§1) Inhibition of cAMP accumulation in Chinese hamster ovary cells stably expressing recombinant CB2 was used to determine the functional potency of RO6868847 for different CB2 species and the selectivity over the closely related CB1.

[2] = target: T2, rat CB2 (Rattus norvegicus, UniProt Q9QZN9); experiment: as above; type: cell-based
T2 construct: expressed in transfected cells; host or cells: CHO cells
T2 sequence (Q9QZN9 1-360): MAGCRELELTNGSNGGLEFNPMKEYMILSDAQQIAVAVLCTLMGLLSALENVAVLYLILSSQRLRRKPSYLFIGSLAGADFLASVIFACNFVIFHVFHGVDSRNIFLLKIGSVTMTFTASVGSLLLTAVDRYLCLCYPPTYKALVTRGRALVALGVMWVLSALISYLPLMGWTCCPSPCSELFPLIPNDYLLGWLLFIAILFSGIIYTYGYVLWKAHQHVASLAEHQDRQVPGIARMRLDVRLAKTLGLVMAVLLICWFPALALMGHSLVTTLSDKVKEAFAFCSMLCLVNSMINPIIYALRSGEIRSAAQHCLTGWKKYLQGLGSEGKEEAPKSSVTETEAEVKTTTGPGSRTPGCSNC
Description: as §1

[3] = target: human CB1 (Homo sapiens, UniProt P21554); experiment: Human CB1 binding assay
human CB1, sequence (P21554 whole entry): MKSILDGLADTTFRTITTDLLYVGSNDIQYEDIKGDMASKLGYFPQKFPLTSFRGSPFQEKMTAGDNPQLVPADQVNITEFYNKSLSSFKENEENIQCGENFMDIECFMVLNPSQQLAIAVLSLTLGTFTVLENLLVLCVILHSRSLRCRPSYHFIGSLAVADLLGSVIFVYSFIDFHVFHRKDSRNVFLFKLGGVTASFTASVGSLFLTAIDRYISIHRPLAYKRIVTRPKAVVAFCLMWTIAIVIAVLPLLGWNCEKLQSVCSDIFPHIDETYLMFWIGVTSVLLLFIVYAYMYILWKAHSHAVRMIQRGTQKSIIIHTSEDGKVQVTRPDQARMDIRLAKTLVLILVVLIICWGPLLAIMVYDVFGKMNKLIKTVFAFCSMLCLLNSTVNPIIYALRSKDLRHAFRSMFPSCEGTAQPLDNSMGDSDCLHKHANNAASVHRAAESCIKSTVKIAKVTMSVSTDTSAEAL

[4] = tested on: LPS-induced G-CSF, IFNγ, IL1β and TNFα levels in whole blood; experiment: In vitro LPS whole blood challenge assay; type: cell-based, human
Experimental: In order to explore any putative anti-inflammatory pharmacodynamic effect mediated by the CB2 agonist RO6868847 in a potentially clinically relevant human sample, an ex vivo whole blood lipopolysacharid (LPS) challenge assay was performed. Sodium heparin whole blood samples from healthy participants (n=8) were incubated in vitro for 1 hour at 37° C. with eight increasing concentrations of RO6868847 (0-30 μM) and exposed to LPS (100 ng/ml). After 18 h at 37° C. supernatants were analyzed for alterations in a range of chemokines and cytokines using Luminex-bead based multiplex ELISAs.
In addition, this in vitro LPS whole blood challenge assay was also used in samples from diabetic (Type I and Type II) and matched healthy participants (table 6). In order to explore whether the exposure (0-30 μM)-response relationship of RO6868847 and the respective alterations in cytokine levels may be changed by any chronic inflammatory conditions in diabetes (DM) and/or in elderly healthy participants (HP), who are anticipated to be the study population of the Phase II proof of concept Study.

[5] = tested on: STZ-induced Type 1 diabetes; type: in vivo; details: rat, 10 mg/kg
Experimental: Pharmacological studies were performed in vitro and in vivo to investigate the potency, selectivity and activity of RO6868847. Pharmacological effects were determined in vivo in two different diabetic animal models which include the streptozotocin (STZ)-induced rat Type 1 diabetes and genetic Type 2 diabetes mouse models as well as in two acute models with acute inflammatory stimulus (LPS-injections) or laser injury (CNV). Additional in vitro pharmacology studies were performed to explore the pharmacological effect of RO6868847 and the suitability of the assays as biomarkers of target engagement and pharmacodynamic effect (PD) in human whole blood obtained from either healthy volunteers or diabetic patients.
The diversity of the tested models (including acute challenge versus disease-modifying models) and the absence of a recommended nonclinical DME/DR model with proven clinical translatability presents a challenge for the estimation of pharmacologically active exposure in humans.
Exposure was derived from satellite animals or extrapolated from previous PK or PD studies in the same species. […]

[6] = Study BP40387 Part 1 (SAD) pharmacokinetics, healthy participants; type: in vivo, human; details: for Tmax / half-life / AUC / Cmax: both sexes, human, plasma
Experimental: In Part 1 (SAD) of Study BP40387, in the fasted state, RO6868847 was overall rapidly absorbed; however, the Tmax appeared to shift with increasing dose. Individual Tmax ranged between 1 to 6 hours at 100 mg and 300 mg RO6868847.

[7] = Study BP40387 Part 2 (FE) food effect on pharmacokinetics; type: in vivo, human; details: for Tmax: both sexes, human, plasma, oral, 100 mg single dose, read-out: Median Tmax
Description: In Part 2 (FE) of Study BP40387, consistent with delayed gastric emptying due to an extended meal, the time to reach peak plasma concentration (Tmax) was slightly longer following dosing after a high fat, high calorie breakfast. […] Single Dose Urine Pharmacokinetics

[8] = diabetic patients and matched healthy participants
[9] = single oral 0.75 mg, fasted, geo mean
[10] = single oral 3.0 mg, fasted, geo mean
[11] = single oral 10 mg, fasted, geo mean
[12] = single oral 30 mg, fasted, geo mean
[13] = single oral 100 mg, fasted, geo mean
[14] = single oral 300 mg, fasted, geo mean

Q: Which “agonist character at human CB2” value [1] does the source give for `Cn1nnnc1Cn1nnc2c(N3CC[C@H](O)C3)nc(C(C)(C)C)nc21` [RO6868847, (3S)-1-[5-tert-butyl-3-[(1-methyltetrazol-5-yl)methyl]triazolo[4,5-d]pyrimidin-7-yl]pyrrolidin-3-ol] here?
A: The value was “potent, full agonist”.

Q: What about the Emax ([1]; Human) of the same molecule?
A: Its Emax is 103%.

Q: What about the Emax ([1]; second row printed 'Human') of the same molecule?
A: The Emax was 101%.

Q: And the IC50 ([1]; Human, four independent experiments)?
A: Its IC50 is 2.81 ± 0.28 nM.

Q: What about the IC50 ([1]; second row printed 'Human') of the same molecule?
A: The IC50 was 2.6 ± 0.14 nM.

Q: And the IC50 [2]?
A: The IC50 was 0.00058 ± 4e-05 µM.

Q: What about the Emax ([2]; CHO, Rats, normalized to 10 μM CP55′940) of the same molecule?
A: The Emax was 94.7%.

Q: And the Ki [3]?
A: Its Ki is greater than 10 µM.

Q: What about the “CB1/CB2 Ratio (binding selectivity)” value ([3]; CB1 Ki over CB2 Ki) of the same molecule?
A: The value was greater than 195 fold.

Q: What about the “affinity for human CB1” value ([3]; highest concentration of 10 μM) of the same molecule?
A: The value was “no affinity”.

Q: And the IC50 ([4]; Homo sapiens, DM, 3/9, read-out: IC50 (IL-1β)/μM)?
A: Its IC50 is 29.4 ± 24.1 µM.

Q: And the IC50 ([4]; Homo sapiens, DM, 7/9, read-out: IC50 (IFNγ)/μM)?
A: Its IC50 is 6.91 ± 2.29 µM.

Q: And the IC50 ([4]; Homo sapiens, HV, 3/8, read-out: IC50 (TNFα)/μM)?
A: Its IC50 is 7 ± 4.61 µM.

Q: And the IC50 ([4]; Homo sapiens, HV, 5/8, read-out: IC50 (IL-1β)/μM)?
A: The IC50 was 5.02 ± 4.58 µM.

Q: And the IC50 ([4]; Homo sapiens, HV, 6/8, read-out: IC50 (IFNγ)/μM)?
A: The IC50 was 10.9 ± 8.9 µM.

Q: What about the IC50 ([4]; Homo sapiens, Matched HVs, 4/8, read-out: IC50 (IFNγ)/μM) of the same molecule?
A: The IC50 was 12.4 ± 4.19 µM.

Q: What about the EC50 ([4]; Homo sapiens, HV, curves fitted 5/8) of the same molecule?
A: Its EC50 is 7.97 ± 6.71 µM.

Q: What about the “G-CSF and TNFα levels post LPS” value [4, 8] of the same molecule?
A: The value was “an overall drug response in the explored exposure range could not be concluded”.

Q: What about the “IFNγ level post LPS” value [4, 8] of the same molecule?
A: The value was “dose-dependent attenuation of IFNγ”.

Q: And the “chemokine and cytokine levels post LPS stimulation” value ([4]; healthy participants n=8, 0-30 μM, LPS 100 ng/ml, 18 h)?
A: Its value is “decrease of IFNγ, IL1β, TNFα and elevation of G-CSF”.

Q: And the “effect on disease marker” value [5]?
A: The value was “full effect”.

Q: And the “unbound AUC0-24 [S-epimer], upper bound of pharmacologically active exposure” value ([5]; in vivo)?
A: The value was 546 ng·hr/mL.

Q: What about the Tmax ([6]; oral, Study BP40387, fasted conditions, across doses, read-out: median Tmax) of the same molecule?
A: The Tmax was 1 to 4 h.

Q: What about the Tmax ([6]; oral, single dose 100 mg and 300 mg, fasted, read-out: Individual Tmax) of the same molecule?
A: Its Tmax is 1 to 6 h.

Q: And the half-life ([6]; oral, single dose, range across doses, read-out: apparent terminal elimination half-life)?
A: Its half-life is 6.95 to 18.5 h.

Q: And the Tmax ([6]; po, 0.75 mg, single oral 0.75 mg, fasted, median, read-out: Tmax)?
A: Its Tmax is 1 h.

Q: What about the Tmax ([6]; po, 3 mg, single oral 3.0 mg, fasted, median, read-out: Tmax) of the same molecule?
A: The Tmax was 1 h.

Q: What about the Tmax ([6]; po, 10 mg, single oral 10 mg, fasted, median, read-out: Tmax) of the same molecule?
A: Its Tmax is 1.75 h.

Q: What about the Tmax ([6]; po, 30 mg, single oral 30 mg, fasted, median, read-out: Tmax) of the same molecule?
A: The Tmax was 1.5 h.

Q: What about the Tmax ([6]; po, 100 mg, single oral 100 mg, fasted, median, read-out: Tmax) of the same molecule?
A: Its Tmax is 1.75 h.

Q: What about the Tmax ([6]; po, 300 mg, single oral 300 mg, fasted, median, read-out: Tmax) of the same molecule?
A: Its Tmax is 3 h.

Q: What about the AUC [6, 9] of the same molecule?
A: The AUC was 112 ng·h/mL.

Q: And the Cmax [6, 9]?
A: Its Cmax is 9.92 ng/mL.

Q: And the half-life ([6]; single oral 0.75 mg, fasted, geo mean, read-out: t1/2 (converted))?
A: The half-life was 6.89 h.

Q: And the AUC [6, 10]?
A: The AUC was 435 ng·h/mL.

Q: What about the Cmax [6, 10] of the same molecule?
A: The Cmax was 40 ng/mL.

Q: And the half-life ([6]; single oral 3.0 mg, fasted, geo mean, read-out: t1/2 (converted))?
A: Its half-life is 7.99 h.

Q: And the AUC [6, 11]?
A: Its AUC is 972 ng·h/mL.

Q: And the Cmax [6, 11]?
A: The Cmax was 111 ng/mL.

Q: And the half-life ([6]; single oral 10 mg, fasted, geo mean, read-out: t1/2 (converted))?
A: The half-life was 6.95 h.

Q: What about the AUC [6, 12] of the same molecule?
A: The AUC was 3530 ng·h/mL.

Q: What about the Cmax [6, 12] of the same molecule?
A: Its Cmax is 355 ng/mL.

Q: And the half-life ([6]; single oral 30 mg, fasted, geo mean, read-out: t1/2 (converted))?
A: Its half-life is 6.97 h.

Q: And the AUC [6, 13]?
A: Its AUC is 12500 ng·h/mL.

Q: And the Cmax [6, 13]?
A: The Cmax was 1120 ng/mL.

Q: What about the half-life ([6]; single oral 100 mg, fasted, geo mean, read-out: t1/2 (converted)) of the same molecule?
A: The half-life was 14.6 h.

Q: And the AUC [6, 14]?
A: Its AUC is 31400 ng·h/mL.

Q: And the Cmax [6, 14]?
A: Its Cmax is 2500 ng/mL.

Q: What about the half-life ([6]; single oral 300 mg, fasted, geo mean, read-out: t1/2 (converted)) of the same molecule?
A: Its half-life is 18.5 h.

Q: What about the “dose-proportionality of Cmax and AUC” value ([6]; doses beyond 100 mg) of the same molecule?
A: The value was “slightly less than dose-proportional”.

Q: And the “dose-proportionality of Cmax and AUC” value ([6]; up to 100 mg)?
A: The value was “no pronounced deviations from dose-proportionality; also recorded: approximately dose-proportionally”.

Q: What about the “effect of food on AUCInf” value ([7]; 100 mg, fed vs fasted) of the same molecule?
A: The value was “increased only marginally”.

Q: What about the “effect of food on Cmax” value ([7]; 100 mg, fed vs fasted) of the same molecule?
A: The value was “remained unaffected by food”.

Q: And the Tmax ([7]; 100 mg, fasted state)?
A: Its Tmax is 3 h.

Q: What about the Tmax ([7]; 100 mg, fed state (high fat, high calorie breakfast)) of the same molecule?
A: Its Tmax is 4 h.

Q: And the “effect of food on the pharmacokinetics” value ([7]; overall)?
A: The value was “no relevant effect”.
